In patent US7094752B2 (Chiron Corporation, priority 1997, dated 2006):

Legend:
[1] = biological target: T1, β1/caveolin/uPAR complexes (Homo sapiens, UniProt Q03405); experiment: Immunoprecipitation of uPAR with β1 / caveolin; format: cell-based; conditions: 100 μM, co-immunoprecipitation
T1 construct: The full length cDNA for the human urokinase receptor; expressed in transfected cells; host or cells: 293 embryonic kidney cells stably expressing GPI-uPAR
Experimental: When triton X 100 (0.2%) insoluble fraction of GPI-uPAR 293 cells is solubilized in polar detergents, immunoprecipitation of β1 clearly co-precipitates uPAR as described in Filardo et al, J. Cell. Biol. 1995, in press: Cells (5×10^6) were cultured overnight, washed twice with microtubule stabilization buffer (0.1M PIPES, pH 6.9, 2M glycerol, 1 mM EDTA, and 1 mM magnesium acetate), and then extracted on ice for 5 minutes in buffer containing 0.2% Triton X 100 and inhibitors (1 mM sodium orthovandate, 1 mM phenylsulfonyl fluoride, […] leupeptin). The insoluble residues were solubolized at 4° C. for 20 minutes in 1× RIPA buffer (150 mM sodium chloride, 50 mM Tris-HCl, pH 7.5, 1% deoxycholate, 0.1% sodium dodecyl sulfate, 1% Triton X-100) supplemented with protease inhibitors. The triton soluble fraction was diluted 1:1 with 2× RIPA buffer. Both fractions were centrifuged for 10 minutes at 6000 rpm, and then precleared by incubation with nonimmune serum and protein A-agarose for 2 hours at 4° C.
Supernatants were transferred to fresh tubes and incubated with antibodies against β1 or caveolin for 2 hours at 4° C. Immune complexes were recovered with protein A-agarose. The washed immunoprecipitates were subjected to 8% SDS-PAGE, and transferred onto a nitrocellulose membrane. […]

[2] = test system: nontransfected 293 cells; experiment: Adhesion of nontransfected 293 cells to fibronectin or collagen; format: cell-based
Excerpt: To explore whether uPAR binds to integrins, nontransfected 293 cells were allowed to adhere to fibronectin or collagen in the presence of recombinant soluble uPAR (suPAR).

[3] = biological target: T2, sUPAR domain 2–3 (D23) (Homo sapiens, UniProt Q03405); experiment: Bacteriophage binding to sUPAR domain 2/3; conditions: phage-displayed peptide
T2 construct: domains 2 and 3 (amino acids 93–313); made in house; host or cells: baculovirus infected Sf9 insect cells
Experimental: FIG. 5. Bacteriophage binding to sUPAR domain 2/3. Phage were added to wells containing sUPAR domain 2/3 immobilized by its epitope tag via protein G and monoclonal antibody to the epitope tag. Wells containing protein G and antibody but no domain 2/3 were included to determine nonspecific phage binding. Urea-eluted phage and the input stocks were titered by plaque formation assay. Results were single point determinations calculated as a percent of the input titer and were repeated in three separate experiments.
It was also shown by the inventors that bacteriophage bound to sUPAR domain 2–3fragment. Protein G, 100μl, 1 mg/ml in 50 mM Na2CO3, pH9.6, was added to MaxiSorp wells, incubated overnight at 4° C. and then washed with PBS/BSA. Fifty μl of monoclonal antibody to the epitope tag EYMPME (SEQ ID NO: 18) was added at 1 mg/ml in PBS/BSA and incubated for 2 hours at room temperature. The wells were washed, recombinant sUPAR domain 2–3 (1.7 μM in PBS/BSA) was added and incubated for 1.5 hours at room temperature. The wells were washed prior to the addition of bacteriophage (approximately 10^8 pfu), and then treated as described in the previous section for binding to suPAR.

[4] = biological target: soluble uPAR (Homo sapiens, UniProt Q03405); format: binding; parameters: sUPAR, soluble truncated form of the urokinase receptor; made in house; host or cells: baculovirus-infected Sf9 insect cells
Experimental: Streptavidin, 100 μl (0.1 mg/ml) in 50 mM Na2CO3, pH 9.6, was added to MaxiSorp wells (Nunc), incubated overnight at 4 C, and then washed with PBS/BSA. Biotinylated sUPAR (25 nM in PBS/BSA) was added to the wells and incubated for 2 hours at room temperature prior to washing. Competitive peptide inhibitors were added to the wells immediately prior to addition of the bacteriophage. The wells were incubated for one hour at room temperature, then washed and bound bacteriophage eluted with 6M urea in 0.1N HCl, pH 2.5. After 15 minutes, the urea eluate was brought to neutral pH by addition of 2M Tris base and the bacteriophage titers of input stocks and elutions measured by plaque formation assay. Results were expressed as the percent of input bacteriophage which bind to the wells. Alternatively, the amount of bacteriophage was determined in an ELISA where phage were preincubated with HRP-conjugated anti-M13 antibody for 30 minutes at room temperature before dispensing into wells prepared as above and incubated for one hour at room temperature. The final anti-M13 conjugate dilution was 1:4000. After washing, TMB substrate (100 μl/well) was added and color development was stopped with 0.8N H2SO4 (100 μl/well). The absorbance at 450 nm was then measured in a 96 well plate reader.
In a uPAR binding assay, the following analogs were tested in a competition with phage displaying either peptide 25 or peptide 9. The analogs comprise both natural and unnatural amino acids.
The analogs were tested in an assay utilizing soluble uPAR, similar to the method described in Example 2. The analogs were tested for their ability to compete with phage displaying either peptide 9 or peptide 25. Analogs 3–61 were tested in competition with peptide 25. Analogs 62–96 were tested in competition with peptide 9. Approximately 10^8 plaque forming units of the phage were used in the assay.
The analogs were tested at a concentration at 40 μM in the uPAR competition assay with phage displaying peptide 25. The results below show which analogs were active.
Analogs 31–61 were tested for their ability to compete with phage displaying peptide 25. The active analogs were tested further at two concentrations, 5 μM and 2.5 μM. These concentrations were calculated based on the synthesis reactions. However, the sequences * were further tested and determined to contain high amounts of amino acids and the quantity tested could have been higher than 5 μM or 2.5 μM.

Sequence of soluble uPAR (Q03405 23-305 limits assumed): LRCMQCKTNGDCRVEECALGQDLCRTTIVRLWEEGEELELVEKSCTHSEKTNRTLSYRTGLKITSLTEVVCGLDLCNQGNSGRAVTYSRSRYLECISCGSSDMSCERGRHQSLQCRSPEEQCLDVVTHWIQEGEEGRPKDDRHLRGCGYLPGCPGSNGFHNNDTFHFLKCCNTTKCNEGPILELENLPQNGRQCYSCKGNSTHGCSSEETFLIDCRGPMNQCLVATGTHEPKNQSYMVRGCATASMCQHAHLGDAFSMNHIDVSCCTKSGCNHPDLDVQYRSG
T2 sequence (Q03405 115-335): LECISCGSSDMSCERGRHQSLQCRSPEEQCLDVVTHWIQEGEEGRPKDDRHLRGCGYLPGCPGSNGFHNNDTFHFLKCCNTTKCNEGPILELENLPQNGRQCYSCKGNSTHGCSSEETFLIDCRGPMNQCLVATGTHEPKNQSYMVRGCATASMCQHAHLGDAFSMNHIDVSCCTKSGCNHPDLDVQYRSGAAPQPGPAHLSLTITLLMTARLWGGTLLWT
T1 sequence (Q03405 23-305, one chain of several): as the sequence (Q03405 23-305 limits assumed) above

H-AESTYHHLSLGYMYTLN-NH2 [peptide 25]
disruption of β1/caveolin/uPAR complexes [1]: largely disrupted
reversal of suPAR inhibition of adhesion to fibronectin and collagen ([2]; 100 μM peptide): reversible
adhesion to fibronectin by nontransfected 293 cells ([2]; peptide alone): no effect
bacteriophage binding to immobilized D23 versus sUPAR ([3]; listed as bacteriophage 25): equivalent binding to D23 and suPAR
bacteriophage binding to immobilized D23 versus sUPAR ([3]; listed as clone 25): bind equivalently to the D23 fragment and full-length receptor
% Inhibition 2.5 uM ([4]; 2500.0): 45%
% Inhibition 5 uM ([4]; 5000.0): 59%
